In patent US9663530B2, “5-oxa-2-azabicyclo[2.2.2]OCTAN-4-yl and 5-oxa-2-azabicyclo[2.2.1]heptan-4-yl derivatives” (Hoffmann-La Roche Inc., priority 2014, dated 2017):

How the values were obtained:
mouse TAAR1 = mouse TAAR1 (Mus musculus (Mouse), UniProt Q923Y8); test: Radioligand binding assay on mouse TAAR1; conditions: for Ki: mouse TAAR1 (first value of the cell), membranes of HEK-293 cells stably expressing mouse TAAR1, read-out: Ki (μM) mouse/rat
Procedure: (§1) Construction of TAAR Expression Plasmids and Stably Transfected Cell Lines
(§2) For the construction of expression plasmids the coding sequences of human, rat and mouse TAAR 1 were amplified from genomic DNA essentially as described by Lindemann et al.. The Expand High Fidelity PCR System (Roche Diagnostics) was used with 1.5 mM Mg^2+ and purified PCR products were cloned into pCR2.1-TOPO cloning vector (Invitrogen) following the instructions of the manufacturer. PCR products were subcloned into the pIRESneo2 vector (BD Clontech, Palo Alto, Calif.), and expression vectors were sequence verified before introduction in cell lines.
(§3) HEK293 cells (ATCC # CRL-1573) were cultured essentially as described by Lindemann et al. (2005). For the generation of stably transfected cell lines HEK293 cells were transfected with the pIRESneo2 expression plasmids containing the TAAR coding sequences (described above) with Lipofectamine 2000 (Invitrogen) according to the instructions of the manufacturer, and 24 hrs post transfection the culture medium was supplemented with 1 mg/ml G418 (Sigma, Buchs, Switzerland). After a culture period of about 10 d clones were isolated, expanded and tested for responsiveness to trace amines (all compounds purchased from Sigma) with the cAMP Biotrak Enzyme immunoassay (EIA) System (Amersham) following the non-acetylation EIA procedure provided by the manufacturer.
Radioligand Binding Assay on Mouse TAAR1
(§4) Membrane Preparation and Radioligand Binding.
HEK-293 cells stably expressing mouse TAAR1 were maintained at 37° C. and 5% CO2 in DMEM high glucose medium, containing fetal calf serum (10%, heat inactivated for 30 min at 56° C.), penicillin/streptomycin (1%), and 375 μg/ml geneticin (Gibco). Cells were released from culture flasks using trypsin/EDTA, harvested, washed twice with ice-cold PBS (without Ca^2+and Mg^2+), pelleted at 1,000 rpm for 5 min at 4° C., frozen and stored at −80° C. Frozen pellets were suspended in 20 ml HEPES-NaOH (20 mM, pH 7.4) containing 10 mM EDTA and homogenized with a Polytron (PT 6000, Kinematica) at 14,000 rpm for 20 s. The homogenate was centrifuged at 48,000×g for 30 min at 4° C. Subsequently, the supernatant was removed and discarded, and the pellet resuspended in 20 ml HEPES-NaOH (20 mM, pH 7.4) containing 0.1 mM EDTA using the Polytron (20 s at 14,000 rpm). This procedure was repeated and the final pellet resuspended in HEPES-NaOH containing 0.1 mM EDTA and homogenized using the Polytron. Typically, aliquots of 2 ml membrane portions were stored at −80° C. With each new membrane batch the dissociation constant (Kd) was determined via a saturation curve. The TAAR1 radioligand ^3[H]-(S)-4-[(ethyl-phenyl-amino)-methyl]-4,5-dihydro-oxazol-2-ylamine (described in WO 2008/098857) was used at a concentration equal to the calculated Kd value, that was usually around 0.7 nM, resulting in the binding of approximately 0.5% of the radioligand and a specific binding representing approximately 70% of the total binding. Nonspecific binding was defined as the amount of ^3[H]-(S)-4-[(ethyl-phenyl-amino)-methyl]-4,5-dihydro-oxazol-2-ylamine bound in the presence of 10 μM unlabeled ligand. All compounds were tested at a broad range of concentrations ([…]) in duplicates. The test compounds (20 […]μl/well) were transferred into a 96 deep well plate (TreffLab), and 180 μl of HEPES-NaOH (20 mM, pH 7.4) containing MgCl2 (10 mM) and CaCl2 (2 mM) (binding buffer), 300 μl of the radioligand ^3[H]-(S)-4-[(ethyl-phenyl-amino)-methyl]-4,5-dihydro-oxazol-2-ylamine at a concentration of 3.3×Kd in nM and 500 μl of the membranes (resuspended at […]) added. The 96 deep well plates were incubated for 1 hr at 4° C. Incubations were terminated by rapid filtration through Unifilter-96 plates (Packard Instrument Company) and glass filters GF/C (Perkin Elmer) presoaked for 1 hr in polyethylenimine (0.3%) and washed 3 times with 1 ml of cold binding buffer. […]

rat TAAR1 = rat TAAR1 (Rattus norvegicus (Rat), UniProt Q923Y9); test: Radioligand binding assay on rat TAAR1; conditions: for Ki: rat TAAR1 (second value of the cell), membranes of HEK-293 cells stably expressing rat TAAR1, read-out: Ki (μM) mouse/rat
Chain of rat TAAR1 (Q923Y9 whole entry): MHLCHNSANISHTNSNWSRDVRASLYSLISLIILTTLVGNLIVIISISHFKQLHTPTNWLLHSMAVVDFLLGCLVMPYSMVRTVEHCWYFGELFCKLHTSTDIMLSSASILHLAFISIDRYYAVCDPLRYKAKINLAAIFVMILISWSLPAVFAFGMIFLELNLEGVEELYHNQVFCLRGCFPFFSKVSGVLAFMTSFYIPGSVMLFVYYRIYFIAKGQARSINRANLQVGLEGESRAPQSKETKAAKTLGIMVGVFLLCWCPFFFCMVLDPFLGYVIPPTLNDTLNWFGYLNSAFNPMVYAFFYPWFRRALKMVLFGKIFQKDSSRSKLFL
Procedure: as §1, §2, §3
Radioligand Binding Assay on Rat TAAR1
as §4
HEK-293 cells stably expressing rat TAAR1 were maintained at 37° C. and 5% CO2 in DMEM high glucose medium, containing fetal calf serum (10%, heat inactivated for 30 min at 56° C.), penicillin/streptomycin (1%), and 375 μg/ml geneticin (Gibco). Cells were released from culture flasks using trypsin/EDTA, harvested, washed twice with ice-cold PBS (without Ca^2+ and Mg^2+), pelleted at 1,000 rpm for 5 min at 4° C., frozen and stored at −80° C. Frozen pellets were suspended in 20 ml HEPES-NaOH (20 mM, pH 7.4) containing 10 mM EDTA and homogenized with a Polytron (PT 6000, Kinematica) at 14,000 rpm for 20 s. The homogenate was centrifuged at 48,000×g for 30 min at 4° C. Subsequently, the supernatant was removed and discarded, and the pellet resuspended in 20 ml HEPES-NaOH (20 mM, pH 7.4) containing 0.1 mM EDTA using the Polytron (20 s at 14,000 rpm). This procedure was repeated and the final pellet resuspended in HEPES-NaOH containing 0.1 mM EDTA and homogenized using the Polytron. Typically, aliquots of 2 ml membrane portions were stored at −80° C. With each new membrane batch the dissociation constant (Kd) was determined via a saturation curve. […] Nonspecific binding was defined as the amount of ^3[H]-(S)-4-[(ethyl-phenyl-amino)-methyl]-4,5-dihydro-oxazol-2-ylamine bound in the presence of 10 μM unlabeled ligand. All compounds were tested at a broad range of concentrations ([…]) in duplicates. The test compounds (20 […]μl/well) were transferred into a 96 deep well plate (TreffLab), and 180 μl of HEPES-NaOH (20 mM, pH 7.4) containing MgCl2 (10 mM) and CaCl2 (2 mM) (binding buffer), 300 μl of the radioligand ^3[H]-(S)-4-[(ethyl-phenyl-amino)-methyl]-4,5-dihydro-oxazol-2-ylamine at a concentration of 3.3×Kd in nM and 500 μl of the membranes (resuspended at 50 μg protein per ml) added. The 96 deep well plates were incubated for 1 hr at 4° C. Incubations were terminated by rapid filtration through Unifilter-96 plates (Packard Instrument Company) and glass filters GF/C (Perkin Elmer) presoaked for 1 hr in polyethylenimine (0.3%) and washed 3 times with 1 ml of cold binding buffer. After addition of 45 μl of Microscint 40 (PerkinElmer) the Unifilter-96 plate was sealed and after 1 hr the ratioactivity counted using a TopCount Microplate Scintillation Counter (Packard Instrument Company).

Chain of mouse TAAR1 (Q923Y8 whole entry): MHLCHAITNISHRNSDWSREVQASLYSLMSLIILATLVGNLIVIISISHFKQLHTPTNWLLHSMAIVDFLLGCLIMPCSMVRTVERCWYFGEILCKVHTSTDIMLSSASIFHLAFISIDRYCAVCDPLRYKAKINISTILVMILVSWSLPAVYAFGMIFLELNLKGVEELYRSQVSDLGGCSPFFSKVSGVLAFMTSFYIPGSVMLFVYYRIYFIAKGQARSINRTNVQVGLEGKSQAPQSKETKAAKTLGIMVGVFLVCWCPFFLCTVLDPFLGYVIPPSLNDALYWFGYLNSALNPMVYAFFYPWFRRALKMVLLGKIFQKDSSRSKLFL

Ki (mouse TAAR1) [µM]	Ki (rat TAAR1) [µM]	Kd (mouse TAAR1; mouse TAAR1 membranes, saturation curve, read-out: dissociation constant (Kd) of the TAAR1 radioligand) [nM]	Kd (rat TAAR1; rat TAAR1 membranes, saturation curve, read-out: dissociation constant (Kd) of the TAAR1 radioligand) [nM]	SMILES
0.0377	1.44			O=C(Nc1ccc(C23CCC(CO2)NC3)cc1)c1ccnc(C(F)(F)F)c1 (racemic) [Example 37, (RS)—N-[4-(5-Oxa-2-azabicyclo[2.2.2]octan-4-yl)phenyl]-2-(trifluoromethyl)pyridine-4-carboxamide]
0.846	0.0442			O=C(Nc1ccc(C[C@]23CN[C@H](CO2)C3)cc1)Nc1ccc(C(F)(F)F)cc1 [Example 8, 1-[4-[[(1S,4S)-5-Oxa-2-azabicyclo[2.2.1]heptan-4-yl]methyl]phenyl]-3-[4-(trifluoromethyl)phenyl]urea]
0.0512	0.273			O=C(Nc1ccc([C@]23CN[C@H](CO2)C3)cc1)c1ccnc(C(F)(F)F)c1 [Example 60, N-[4-[(1S,4R)-5-Oxa-2-azabicyclo[2.2.1]heptan-4-yl]phenyl]-2-(trifluoromethyl)pyridine-4-carboxamide]
0.003	0.0626			O=C(Nc1ccc(C[C@@]23CN[C@@H](CO2)C3)cc1)c1ccc(Cl)cc1 [Example 21, 4-Chloro-N-[4-[[(1R,4R)-5-oxa-2-azabicyclo[2.2.1]heptan-4-yl]methyl]phenyl]benzamide]
0.0104	0.0104			O=C(Nc1ccc(C[C@@]23CN[C@@H](CO2)C3)cc1)c1ccc(OCC(F)(F)F)nc1 [Example 47, N-[4-[[(1R,4R)-5-Oxa-2-azabicyclo[2.2.1]heptan-4-yl]methyl]phenyl]-6-(2,2,2-trifluoroethoxy)pyridine-3-carboxamide]
0.0028	0.662			O=C(Nc1ccc(C23CCC(CO2)NC3)cc1)c1ccc(Cl)cc1 (racemic) [Example 5, (RS)-4-Chloro-N-[4-(5-oxa-2-azabicyclo[2.2.2]octan-4-yl)phenyl]benzamide]
0.016	0.071			O=C(Nc1ccc([C@]23CN[C@H](CO2)C3)cc1)c1ccc(Cl)cc1 [Example 58, 4-Chloro-N-[4-[(1S,4R)-5-oxa-2-azabicyclo[2.2.1]heptan-4-yl]phenyl]benzamide]
0.0044	0.797			O=C(Nc1ccc(C23CCC(CO2)NC3)cc1)c1cccc(Cl)c1 (centres unmarked) [Example 6, 3-Chloro-N-[4-(5-oxa-2-azabicyclo[2.2.2]octan-4-yl)phenyl]benzamide]
0.0593	1.91			O=C(Nc1ccc([C@@]23CN[C@@H](CO2)C3)cc1)c1ccnc(C(F)(F)F)c1 [Example 57]

Further lines, the compound ahead of its results:

SMILES	Ki (mouse TAAR1) [µM]	Ki (rat TAAR1) [µM]	Kd (mouse TAAR1; mouse TAAR1 membranes, saturation curve, read-out: dissociation constant (Kd) of the TAAR1 radioligand) [nM]	Kd (rat TAAR1; rat TAAR1 membranes, saturation curve, read-out: dissociation constant (Kd) of the TAAR1 radioligand) [nM]
CCOc1ccc(C(=O)Nc2ccc(C[C@]34CN[C@H](CO3)C4)cc2)cc1 [Example 19, 4-Ethoxy-N-[4-[[(1 S,4S)-5-oxa-2-azabicyclo[2.2.1]heptan-4-yl]methyl]phenyl]benzamide]	0.334	0.063		
CC(C)c1cc(C(=O)Nc2ccc(C[C@]34CN[C@H](CO3)C4)cc2)[nH]n1 [Example 38, 3-Isopropyl-N-[4-[[(1S,4S)-5-oxa-2-azabicyclo[2.2.1]heptan-4-yl]methyl]phenyl]-1H-pyrazole-5-carboxamide]	10.1	0.441		
O=C(Nc1ccc(C[C@]23CN[C@H](CO2)C3)cc1)c1[nH]nc(C2CC2)c1Cl [Example 29, 4-Chloro-3-cyclopropyl-N-[4-[[(1 S,4S)-5-oxa-2-azabicyclo[2.2.1]heptan-4-yl]methyl]phenyl]-1H-pyrazole-5-carboxamide]	0.476	0.633		
CCCc1n[nH]c(C(=O)Nc2ccc(C34CCC(CO3)NC4)cc2)c1Cl (racemic) [Example 34, (RS)-4-Chloro-N-[4-(5-oxa-2-azabicyclo[2.2.2]octan-4-yl)phenyl]-3-propyl-1H-pyrazole-5-carboxamide]	0.0135	0.0973		
O=C(Nc1ccc(C[C@]23CN[C@H](CO2)C3)cc1)Nc1ccccc1Cl [Example 9, 1-(2-Chlorophenyl)-3-[4-[[(1S,4S)-5-oxa-2-azabicyclo[2.2.1]heptan-4-yl]methyl]phenyl]urea]	1.63	0.53		
FC(F)(F)c1ccc(Nc2ccc([C@]34CN[C@H](CO3)C4)cc2)nc1 [Example 61, N-[4-[(1 S,4R)-5-Oxa-2-azabicyclo[2.2.1]heptan-4-yl]phenyl]-5-(trifluoromethyl)pyridin-2-amine]	0.0146	0.0293		
CC(C)c1cc(C(=O)Nc2ccc(C[C@@]34CN[C@@H](CO3)C4)cc2)[nH]n1 [Example 52, 3-Isopropyl-N-[4-[[(1R,4R)-5-oxa-2-azabicyclo[2.2.1]heptan-4-yl]methyl]phenyl]-1H-pyrazole-5-carboxamide]	0.295	1.16		
Clc1ccc(Nc2ccc(C[C@]34CN[C@H](CO3)C4)cc2)nc1 [Example 30, 5-Chloro-N-[4-[[(1S,4S)-5-oxa-2-azabicyclo[2.2.1]heptan-4-yl]methyl]phenyl]pyridin-2-amine]	2.55	0.621		
CCN(C[C@H]1COC(N)=N1)c1ccccc1 [^3[H]-(S)-4-[(ethyl-phenyl-amino)-methyl]-4,5-dihydro-oxazol-2-ylamine, reference compound]			~0.7	~2.3
Clc1ccc(Nc2ccc(C[C@@]34CN[C@@H](CO3)C4)cc2)nc1 [Example 42, 5-Chloro-N-[4-[[(1R,4R)-5-oxa-2-azabicyclo[2.2.1]heptan-4-yl]methyl]phenyl]pyridin-2-amine]	0.0158	0.355		
